Measurements as given in patent US11926611B1, “2-(2-ethoxyethoxy)-6-phenyl-4,4′-bipyridine-3-carbonitrile as an antimicrobial compound” (KING FAISAL UNIVERSITY, priority 2023, dated 2024).

Key:
[1] = system: Candida albicans; assay: Antimicrobial screening by agar dilution, Candida albicans; assay type: cell-based; details: after 10, 20, 40 and 60 minutes at all dilutions 1:100, 1:200, 1:400, 1:800
Method: (§1) The antibacterial properties of the synthesized compound 2-(2-ethoxyethoxy)-6-phenyl-4,4′-bipyridine-3-carbonitrile were studied by the method of agar dilution. Test solutions of each compound was prepared in concentration of 1% using dimethylformamide as a solvent then they are diluted in physiological solution to obtain the final experimental dilutions 1:100, 1:200, 1:400, 1:800. The effect of these substances are compared with furacillin in a controllable study. The testing microbes used were gram positive bacteria Staphylococcus aureus, gram negative bacteria Pseudomonas aeruginosa and Escherichia coli and Candida albicans fungus. The experiments used for this survey were meat-pentonlu agar (EPA) for cultivation of bacteria and Saburo environment for the fungus. Each experiment used 1 mL of test solution on each plate […]. Two drops of emulsified with microbes feel were added. All experimental samples were taken from the agar after 10, 20, 40, 60 minutes in the environment on the basis of Patrk planted. The bacteria were cultivated at a temperature of 37° C. for 1 day and the mushroom was kept in a thermostat for […] at a temperature of 28° C. Then results were checked.

[2] = system: Pseudomonas aeruginosa; assay: Antimicrobial screening by agar dilution, Pseudomonas aeruginosa; assay type: cell-based; details: after 10, 20, 40 and 60 minutes at all dilutions 1:100, 1:200, 1:400, 1:800
Method: as §1

[3] = system: Staphylococcus aureus; assay: Antimicrobial screening by agar dilution, Staphylococcus aureus; assay type: cell-based; details: after 10, 20, 40 and 60 minutes at all dilutions 1:100, 1:200, 1:400, 1:800
Method: as §1

[4] = system: Escherichia coli; assay: Antimicrobial screening by agar dilution, Escherichia coli; assay type: cell-based; details: after 10, 20, 40 and 60 minutes at all dilutions 1:100, 1:200, 1:400, 1:800
Method: as §1

melting point: 241 to 243 °C
SMILES: CCOCCOc1nc(-c2ccccc2)cc(-c2ccncc2)c1C#N [2-(2-ethoxyethoxy)-6-phenyl-4,4′-bipyridine-3-carbonitrile]
inhibition activity (in words) [1]: highest inhibition activity | inhibition activity (in words) [2]: highest inhibition activity | inhibition activity (in words) [3]: highest inhibition activity | inhibition activity (in words) [4]: highest inhibition activity
